In patent US7449466B2, “Cyclic aminophenyl sulfamate derivative” (Aska Pharmaceutical Co., Ltd., priority 2003, dated 2008):

Tests used:
MCF-7 cells = test: MCF-7 cell proliferation measurement (MTT) for examining estrogenic activity; type: cell-based, human; details: 4 days, 570 nm
Description: (3) MCF-7 Cell Proliferation Measurement for Examining Estrogenic Activity:
Stimulation of MCF-7 cell proliferation induced by estrogenic activity of each test compound was measured.
MCF-7 cells were cultured in 10% fetal bovine serum (FBS)-containing RPMI 1640 medium which was free from Phenol Red, using a 75 cm^2 culture flask. Then the medium was changed to RPMI 1640 medium containing 10% of FBS from which emdogenous steroid had been eliminated by charcoal treatment but containing no Phenol Red. Renewing the medium every two days, the culture was continued for 4 days. By this step estrogen was removed from the MCF-7 cells.
The MCF-7 cells were seeded on 96-well plates, 2,000 cells per well, and cultured for 24 hours to immobilize the cells on the plate. After the cell immobilization, the medium in each well was changed to RPMI 1640 medium containing 10^−6M test compound and 10% of charcoal-treated FBS but containing no Phenol Red, and the culture was continued for further 4 days, during which the medium was changed every day to one newly prepared before the use. Also control wells to which no test compound was added were provided.
After the end of the culture, the cell proliferation was measured by MTT (3-(4,5-dimethylthiazol-2-yl)-2,5-diphenyl-2H-tetrazolium bromide; Sigma-Aldrich Japan Co.) method. That is, an MTT solution as dissolved in PBS at a concentration of 5 mg/mL was added to the 96-well plate accommodating the cells, at a rate of 10 μL/well, followed by 2 hours' incubation at 37° C. After the end of the incubation, the medium was removed and the formazan which was taken into the cells and changed was dissolved with 100 μL of dimethylsulfoxide. Absorbance of the formazan was measured at wavelength 570 nm, using a microplate reader, subtracting the 630 nm background.
As shown by the Table 3, absorbance values of the wells to which the test compounds were added were invariably less than 150% of the absorbance of the control well, and it was confirmed that the test compounds were free of estrogenic activity.

steroid sulfatase = molecular target: T1, steroid sulfatase (Homo sapiens, UniProt P08842); test: Steroid sulfatase inhibitory activity (in vitro), microsomal fraction of MCF-7 cells, [3H]estrone-3-sulfate hydrolysis; type: biochemical; parameters: microsomal fraction of MCF-7 human breast cancer cells was used; endogenous in cells; host or cells: MCF-7 human breast cancer cells (microsomal fraction); details: MCF-7 microsomal fraction, 37° C., 30 minutes
T1 sequence (P08842 22-583): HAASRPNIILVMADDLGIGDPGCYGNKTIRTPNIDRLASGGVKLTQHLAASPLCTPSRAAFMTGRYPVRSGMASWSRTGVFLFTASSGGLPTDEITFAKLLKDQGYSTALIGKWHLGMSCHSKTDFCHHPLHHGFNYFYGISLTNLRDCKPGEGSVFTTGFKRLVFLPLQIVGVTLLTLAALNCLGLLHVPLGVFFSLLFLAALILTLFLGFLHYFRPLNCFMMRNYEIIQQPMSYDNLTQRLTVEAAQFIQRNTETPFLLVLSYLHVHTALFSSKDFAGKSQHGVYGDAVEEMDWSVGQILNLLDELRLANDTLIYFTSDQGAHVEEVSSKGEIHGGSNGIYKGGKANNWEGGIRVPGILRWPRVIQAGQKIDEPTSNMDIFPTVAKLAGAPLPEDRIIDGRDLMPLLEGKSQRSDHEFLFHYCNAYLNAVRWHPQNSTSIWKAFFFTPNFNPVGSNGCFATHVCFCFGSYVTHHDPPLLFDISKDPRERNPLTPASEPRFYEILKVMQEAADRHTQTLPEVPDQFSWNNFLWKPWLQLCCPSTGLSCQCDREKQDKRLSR
Description: (1) Measurement of Steroid Sulfatase Inhibitory Activity (in vitro):
As the source of steroid sulfatase enzyme, microsomal fraction of MCF-7 human breast cancer cells was used.
To phosphate buffered saline (PBS), one of the test compounds, the microsomal fraction and 50 μL of 60 μM estrone-3-sulfate containing about 100 nCi of [6,7-^3H]estrone-3-sulfate (purchased from Perkin Elmer Life Sciences, Boston, Mass., USA; specific activity, 40-60 Ci/mmol) were added to make the total amount of the reaction system 150 μL, which was incubated at 37° C. for 30 minutes. After the incubation, 50 μL of PBS containing about 2 nCi of [4-^14C] estrone (purchased from Perkin Elmer Life Sciences, Boston, Mass., USA; specific activity 45-60 mCi/mmol) was added and stirred. Further 800 μL of toluene was added, and the whole system was thoroughly shaken for 30 seconds, followed by centrifugation at 2,000×g for 10 minutes to separate the acqueous phase from the organic phase. A part (400 μL) of the organic phase was taken and measured of its ^3H and ^14C contents with scintillation spectrometer.
The mass of hydrolyzed [6,7-^3H]estrone-3-sulfate was calculated from the count number of the obtained ^3H (as corrected regarding the amount of the used organic phase and the recovered amount of [4-^14C]estrone) and the specific activity of the substrate ([6,7-^3H]estrone-3-sulfate) to determine the steroid sulfatase inhibitory rate of each test compound.

NS(=O)(=O)Oc1ccc(N2CCN(CCCC3CCCCC3)CC2)cc1F [Example 24, 4-[4-(3-cyclohexylpropyl)piperazin-1-yl]-2-fluorophenyl-O-sulfamate]
Absorbance relative to that of the control well (10^−6 M, %) (MCF-7 cells): 74.6%
Inhibitory rate (%) (10^−6 M) (steroid sulfatase; 10^−6 M test compound): 88.8%
Inhibitory rate (%) (10^−7 M) (steroid sulfatase; 10^−7 M test compound): 31.1%
